Experimental data reported in PubChem BioAssay AID652177 (Vanderbilt Specialized Chemistry Center, 2013).

Target: High affinity choline transporter 1 (Homo sapiens) (UniProt Q9GZV3)
Test: CHT choline uptake inhibitors, dose response, cell-based, HEK-293 hCHT, [3H]-choline uptake (AID 652177)
Conditions: 15 min, IC50 at 10 uM choline

Chain of High affinity choline transporter 1 (Homo sapiens) (Q9GZV3 whole entry, looked up): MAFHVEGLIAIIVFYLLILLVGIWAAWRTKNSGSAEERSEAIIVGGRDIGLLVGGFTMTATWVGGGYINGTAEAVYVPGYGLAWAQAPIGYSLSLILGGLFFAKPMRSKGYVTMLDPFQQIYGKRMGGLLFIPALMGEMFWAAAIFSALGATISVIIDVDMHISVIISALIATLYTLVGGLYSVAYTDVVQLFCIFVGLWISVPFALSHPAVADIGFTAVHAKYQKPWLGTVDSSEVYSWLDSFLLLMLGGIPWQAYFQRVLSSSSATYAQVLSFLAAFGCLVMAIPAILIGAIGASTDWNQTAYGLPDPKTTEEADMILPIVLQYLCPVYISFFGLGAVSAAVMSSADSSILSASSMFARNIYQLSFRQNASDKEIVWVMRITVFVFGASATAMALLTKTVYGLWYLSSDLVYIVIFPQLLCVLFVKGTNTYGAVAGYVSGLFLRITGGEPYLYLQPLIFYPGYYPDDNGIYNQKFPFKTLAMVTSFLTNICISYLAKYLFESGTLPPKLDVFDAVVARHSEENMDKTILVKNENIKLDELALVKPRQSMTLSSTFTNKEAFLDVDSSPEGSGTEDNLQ

- IC50: 2210 nM
Structure (SMILES): CCc1cc(CNC(=O)c2ccc(OC)c(OCCN3CCCCC3)c2)on1
